For one test, the system named is CD11b+ monocytes. Kind of test: Peripheral blood CD11b+ monocyte number by flow cytometry after single injection. It counts as in vivo, C57BL/6 mice. Conditions: for CD11b+ monocyte number in peripheral blood: 24 hrs after single injection; for circulating monocytes in peripheral blood: intramuscular injection; for circulating monocytes in peripheral blood / total monocytes in the peripheral blood: 24 hrs, normal count 5%; for total monocytes in the peripheral blood: intraperitoneal route. An excerpt: Monocytes are the peripheral blood precursor cells of microglia (Rezaie, P., et al 1999. Microglia in the human fetal spinal cord—patterns of distribution, morphology and phenotype. Brain Res. Dev. Brain Res. 115:71-81: Mildner et al Nat Neurosci. 2007 December; 10(12):1544-53. Epub 2007 Nov. 18. PubMed PMID: 18026096.). During embryonic development, microglia populate the CNS from myeloid lineage precursors in the bone marrow and these cells are circulating in the peripheral blood before becoming macrophages in their infiltrating tissues, such as microglia are for the brain. Markers such as CD11b and Ly6C are immunologicals markers that are present on peripheral blood monocytes and persist when they are infiltrating the brain (Mildner et al., 2007 infra, Lebson L, et al Trafficking CD11b-positive blood cells deliver therapeutic genes to the brain ofamyloid-depositing transgenic mice. J Neurosci. 2010 Jul. 21; 30(29):9651-8. PubMed PMID: 20660248.). To investigate whether 3D MPL containing adjuvants and s are contributing to induce the number of monocytes in the peripheral blood, we have performed a single injection of those molecules and measure after 24 hrs (post injection) the CD11b+ monocytes number by a flow cytometry method (Mildner A, et al Microglia in the adult brain arise from Ly-6ChiCCR2+ monocytes only under defined host conditions. Nat Neurosci. 2007 December; 10(12):1544-53. Epub 2007 Nov. 18. PubMed PMID: 18026096). As described in FIG. 3, we are showing an increase of CD11b+ monocyte number having that phenotypic composition of markers :CD11b+, lineage cocktail negative (CD3-, B220-, NK1.1-,Ly6C-) after the injection of 3D MPL or AS15 or AS01B or CRX527 or CRX601. Comparing to a normal monocyte number count in the peripheral blood, which is 5% whereas the intramuscular (i.m.) injection of AS01B, and AS15 are showing an increase of the number of circulating monocytes to up to 20%. Moreover, the injection of 3D MPL or CRX601 or CRX601 using the intraperitoneal route is also showing a 22% of total monocytes in the peripheral blood.
Peripheral blood was drawn from C57BL/6 mice via cardiac puncture with lithium-heparin as anticoagulant, 24-Hour after injection of the TLR adjuvants. Red blood cell lysis was performed twice on pooled blood with Ammonium Chloride-based Buffer (Sigma, Steinheim, Germany) and cells were counted with the EasyCount™ System (Immunicon). After one washing step, 500,000 cells were incubated with Rat anti-Mouse CD16/CD32 (BD Fc Block™ by BD Biosciences) for 10 min. on ice and cells were further incubated for 30 min. with a combination of the following directly conjugated antibodies at their pre-determined optimal concentration as described by Mildner et al., 2007): PerCP labeled-Streptavidin, PE-Hamster anti-Mouse CD3, Rat anti-Mouse CD45R/B220, Rat anti-Mouse Ly-6G, Mouse anti-Mouse NK1.1 APC-conjugated Rat anti-Mouse CD11b, PE-Cy7-conjugated Hamster anti-Mouse CD11c, FITC-Rat Anti-Mouse Ly-6C (all from BD Biosciences) and Pacific Blue™ Rat anti-Mouse CD62L (BioLegend, San Diego, Calif.). Cells were finally washed three times and fixed for 15 min. with a 2% paraformaldehyde solution in PBS. Fluorescence minus one (FMO) controls were always included in the assays for fluorescent compensation setting.
Samples were acquired on a flow cytometer (BD FACSCanto II) and data analyzed with the FACSDiva software (BD Biosciences).
Monocytes were identified by their Side/Forward scatter properties and gated as CD3-/CD45R/B220-/Ly-6G-/NK1.1-(Lineage-)/CD11b+ cells. CD11b+ monocytes frequency was reported as a percentage of the total cells excluding debris.
24-Hour after injection of the TLR adjuvants, peripheral blood was drawn from C57BL/6 mice via cardiac puncture with lithium-heparin as anticoagulant. Red blood cell lysis was performed twice on pooled blood with Ammonium Chloride-based Buffer (Sigma, Steinheim, Germany) and cells were counted with the EasyCount™ System (Immunicon). […]

Another test concerns APPSwe/PS1 mice. Kind of test: T-water maze. Conditions: for T maze reversal test compared with group 1 (PBS): 12x weekly; for spatial memory / behaviour in T water maze compared to non-treated mice: twelve weekly injections, CRX 20 μg i.p., 3D MPL 50 μg i.p., AS01B 1/10th human dose i.m. It counts as in vivo, mouse. The method, then: Five groups of APPSwe/PS1 mice have received one a week for a period of 12 weeks the following treatment: • Gr1: APPSwe/PS1+NaCl 0.9% n(=20), i.p. injections • Gr4: APPSwe/PS1+CRX527 (20 μg/mouse, 130 μl, n=10), i.p. injections • Gr5: APPSwe/PS1+CRX601 (20 μg/mouse, 130 μl, n=10), i.p. injections • Gr6: APPSwe/PS1+3D MPL (50 μg/mouse, 130 μl, n=10), i.p. injections • Gr8 APPSwe/PS1+AS15 • Gr9: APPSwe/PS1+AS01B ( 1/10th of human dose μg/kg, 50 μl, n=10), i.m. injections
Mice were tested during the “light on” phase of the day. Behavioral experimenter was blinded to the genetic and treatment status of animals. To assess hippocampal-dependent spatial learning and memory, mice were trained in the T-water maze task. In this paradigm, we evaluate the mouse's ability to remember the spatial location of submerged platform. The T-maze apparatus (length of stem, 64 cm; length of arms, 30 cm; width, 12 cm; height of walls, 16 cm) was made of clear fiberglass and filled with water (23±1° C.) at a height of 12 cm. A platform (11×11 cm) was placed at the end of the target arm and was submerged 1 cm below the surface. The acquisition phase allows to evaluate animals for left-right spatial learning. During the first two trials, platforms were placed on each arms of the maze to test the spontaneous turning preference of the mouse. After these two trials, the least chosen arm was reinforced by the escape platform. The mice were placed in the stem of the T-maze and choose to swim either left or right until they found the submerged platform and escape to it, to a maximum of 60 s. After reaching the platform, the mice remained on it for 20 s and then were immediately placed back in the maze. […] Repeated trials were presented on the same day up to a maximum of 48 trials. A rest period of at least 10-15 min intervened between each block of 10 trials. A mouse was considered to have learned the task when it made no errors in a block of five consecutive trials. The reversal learning phase was then conducted 48 h later.
During this phase, the same protocol was repeated, except that the mice were trained to find the escape platform on the opposite side to that on which they had learned on acquisition phase. The number of trials to reach the criterion (five of five correct choices made on consecutive trials) was measured as well as the latency to find the escape platform.
Further experiments were carried out using the following groups.

Consider “3-O-desacyl-4′-monophosphoryl lipid A [3D MPL]”, for which the “CD11b+ monocyte in the peripheral blood” value in the test with CD11b+ monocytes (5 μg dose i.m., 24 hours) is “double increase”. Besides, the “peripheral blood monocyte count” value with CD11b+ monocytes (50 μg dose i.m., 24 hours) is listed as “drop”. In the test on CD11b+ monocytes, the “CD11b+ monocyte number in peripheral blood” value (from here on “CD11b+ monocyte number”) is “increase”, the “circulating monocytes in peripheral blood” value is recorded as no more than 13% and the “total monocytes in the peripheral blood” value was found to be 22%. The “T maze reversal test compared with group 1 (PBS)” value in the test with APPSwe/PS1 mice (group 9: intra peritoneal 50 ug per mouse) was “significantly improved”. Also, the “T maze reversal test compared with group 1 (PBS)” value in the test on APPSwe/PS1 mice (group 10: i.m. 5 ug per mouse) is “significantly improved”. The “spatial memory / behaviour in T water maze compared to non-treated mice” value in the test on APPSwe/PS1 mice was “spatial memory improvement”. Moreover, in the test on APPSwe/PS1 mice (listed as 3D-MPL), the “spatial memory / behaviour in T water maze compared to non-treated mice” value is listed as “significant improvements”.

For `CCCCCCCCCCC[C@H](CC(=O)N[C@H]1[C@H](OC[C@H](NC(=O)C[C@@H](CCCCCCCCCCC)OC(=O)CCCCCCCCC)C(=O)O)O[C@H](CO)[C@@H](OP(=O)(O)O)[C@@H]1OC(=O)C[C@@H](CCCCCCCCCCC)OC(=O)CCCCCCCCC)OC(=O)CCCCCCCCC` [CRX527], the “CD11b+ monocyte number” value with CD11b+ monocytes is on record as “increase”. Besides, the “spatial memory / behaviour in T water maze compared to non-treated mice” value is reported as “spatial memory improvement” in the test on APPSwe/PS1 mice and “significant improvements” in the test on APPSwe/PS1 mice (listed as CRX 527).

Take `CCCCCCCCCCC[C@H](CC(=O)N[C@H]1[C@H](OC[C@H](NC(=O)C[C@@H](CCCCCCCCCCC)OCCCCCCCCCC)C(=O)O)O[C@H](CO)[C@@H](OP(=O)(O)O)[C@@H]1OC(=O)C[C@@H](CCCCCCCCCCC)OCCCCCCCCCC)OCCCCCCCCCC` [CRX601]: the monocyte count effect entry with CD11b+ monocytes (20 μg dose i.m.) was “down modulated”. In the test with CD11b+ monocytes, the “CD11b+ monocyte number” value is “increase”, the “circulating monocytes in peripheral blood” value was “up to 12%” and the “total monocytes in the peripheral blood” value is on record as 22%. Also, the “amount enough to trigger an increase of the monocyte count” value in the test on CD11b+ monocytes (single i.m. injection, six doses 0.2 to 20 μg) came to 1 µg. For the same compound, the “T maze reversal test compared with group 1 (PBS)” value in the test on APPSwe/PS1 mice (group 3: i.m. 2 ug per mouse) is on record as “significantly improved”. In addition, the “spatial memory / behaviour in T water maze compared to non-treated mice” value in the test on APPSwe/PS1 mice is reported as “spatial memory improvement”. Further, the “spatial memory / behaviour in T water maze compared to non-treated mice” value in the test with APPSwe/PS1 mice (listed as CRX 601) is recorded as “significant improvements”.
